Results on 15 compounds are retold here after patent US20250163104A1, “MACROCYCLIC IMMUNOMODULATORS” (priority 2021, published 2025).

*1 amine or outer side, *2 acyl side, *3 side chain or, on linkers, in order; H or OH if unused. Where a SMILES comes first, the peptide text is derived from it. Bridges are numbered along the chain shown (N, C = ends). [ ]: non-standard residue; d: D form. The star is where a group is joined. Ala(6-(2-MePh)pyridin-3-yl) = Cc1ccccc1-c1ccc(C[C@H](N)C(=O)O)cn1; Phe(3,4-Cl2) = N[C@@H](Cc1ccc(Cl)c(Cl)c1)C(=O)O; Phe(3,4-F2) = N[C@@H](Cc1ccc(F)c(F)c1)C(=O)O; Phe(3,5-F2) = N[C@@H](Cc1cc(F)cc(F)c1)C(=O)O; X8 = O=C([C@H](Cc1ccc2ccncc2c1)N[*:1])[*:2]; Bip = N[C@@H](Cc1ccc(-c2ccccc2)cc1)C(=O)O; 2Nal = N[C@@H](Cc1ccc2ccccc2c1)C(=O)O; Gla = N[C@@H](CC(C(=O)O)C(=O)O)C(=O)O; αMeF = C[C@](N)(Cc1ccccc1)C(=O)O; αMeE = C[C@](N)(CCC(=O)O)C(=O)O; Cha = N[C@@H](CC1CCCCC1)C(=O)O; Cit = NC(=O)NCCC[C@H](N)C(=O)O; hSer = N[C@@H](CCO)C(=O)O; Carboxymethyl = O=C(O)C*; Orn = NCCC[C@H](N)C(=O)O; Dab = NCC[C@H](N)C(=O)O; Dap = NC[C@H](N)C(=O)O

In this assay the target is T1, human PD-1 / PD-L1-Ig binding on Jurkat cell line over-expressing human PD-1 (Jurkat-PD-1) (Homo sapiens, UniProt Q15116).
T1 construct: expressed in transfected cells; host or cells: Jurkat
T1 sequence (Q15116 25-288): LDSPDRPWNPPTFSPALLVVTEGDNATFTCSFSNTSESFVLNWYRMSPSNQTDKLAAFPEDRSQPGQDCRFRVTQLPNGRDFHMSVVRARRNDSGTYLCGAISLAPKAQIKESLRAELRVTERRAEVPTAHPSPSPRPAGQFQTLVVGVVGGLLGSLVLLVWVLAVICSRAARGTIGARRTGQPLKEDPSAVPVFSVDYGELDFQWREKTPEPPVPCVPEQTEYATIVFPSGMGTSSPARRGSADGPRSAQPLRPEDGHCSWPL
Kind of assay: Jurkat-PD-1 Cell Binding High-Content Screening Assay (CBA). The class given is cell-based. To be noted: Jurkat-PD-1 cells, PE-labeled PD-L1-Ig 20 nM final; read-out: Jurkat HPD1_PDL1 IC50. In outline: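 Jurkat cells over-expressing human PD-1, in DMEM/10% FCS, pre-incubated with compound 2 h at 37° C. PE-labeled human PD-L1-Ig (20 nM final) added for 1 h; cells fixed in paraformaldehyde with Hoechst 33342 nuclear stain, washed, and bound fluorescence quantified by high-content imaging.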
Regarding `CC(C)C[C@H]1NC(=O)[C@H](CCCN)NC(=O)[C@H](CCCNC(N)=O)NC(=O)[C@H](Cc2ccc(-c3ccccc3)cc2)NC(=O)[C@H](C(C)C)NC(=O)[C@H](Cc2c[nH]c3ccccc23)NC(=O)[C@H](CC(=O)O)NC(=O)[C@H](Cc2ccc(F)c(F)c2)NC(=O)[C@H](CN)NC(=O)CSC[C@@H](C(=O)N[C@@H](C)C(N)=O)NC(=O)[C@H]([C@@H](C)O)NC(=O)[C@H](C(C)C)NC(=O)[C@H](CC2CCCCC2)NC(=O)[C@H](CCN)NC1=O` [Compound 2129] ({CH2CO}-[Dap][Phe(3,4-F2)]DWV[Bip][Cit][Orn][dL][Dab][Cha]VTCA-NH2; thioether N-14), the IC50 (commonly the concentration at which inhibition is half-maximal) was 48.2 nM.
To `CC(C)C[C@H]1NC(=O)[C@H](CCCN)NC(=O)[C@H](CCCNC(N)=O)NC(=O)[C@H](Cc2ccc(-c3ccccc3)cc2)NC(=O)[C@H](C(C)C)NC(=O)[C@H](Cc2c[nH]c3ccccc23)NC(=O)[C@H](CC(=O)O)NC(=O)[C@H](Cc2ccc(Cl)c(Cl)c2)NC(=O)[C@H](CN)NC(=O)CSC[C@@H](C(=O)N[C@@H](C)C(N)=O)NC(=O)[C@H]([C@@H](C)O)NC(=O)[C@H](C(C)C)NC(=O)[C@H](CC2CCCCC2)NC(=O)[C@H](CCN)NC1=O` [Compound 2130] ({CH2CO}-[Dap][Phe(3,4-Cl2)]DWV[Bip][Cit][Orn][dL][Dab][Cha]VTCA-NH2; thioether N-14) belongs 96.6 nM; to `CC(C)C[C@H]1NC(=O)[C@H](CCCN)NC(=O)[C@H](CCCNC(N)=O)NC(=O)[C@H](Cc2ccc(-c3ccccc3)cc2)NC(=O)[C@H](C(C)C)NC(=O)[C@H](Cc2c[nH]c3ccccc23)NC(=O)[C@H](CC(=O)O)NC(=O)[C@H](Cc2cc(F)cc(F)c2)NC(=O)[C@H](CN)NC(=O)CSC[C@@H](C(=O)N[C@@H](C)C(N)=O)NC(=O)[C@H]([C@@H](C)O)NC(=O)[C@H](C(C)C)NC(=O)[C@H](CC2CCCCC2)NC(=O)[C@H](CCN)NC1=O` [Compound 2131] ({CH2CO}-[Dap][Phe(3,5-F2)]DWV[Bip][Cit][Orn][dL][Dab][Cha]VTCA-NH2; thioether N-14), 37.2 nM; to `CC(C)C[C@H]1NC(=O)[C@H](CCCN)NC(=O)[C@H](CCCNC(N)=O)NC(=O)[C@H](Cc2ccc(-c3ccccc3)cc2)NC(=O)[C@H](C(C)C)NC(=O)[C@H](Cc2c[nH]c3ccccc23)NC(=O)[C@H](CC(=O)O)NC(=O)[C@H](Cc2ccc(C(=O)c3ccccc3)cc2)NC(=O)[C@H](CN)NC(=O)CSC[C@@H](C(=O)N[C@@H](C)C(N)=O)NC(=O)[C@H]([C@@H](C)O)NC(=O)[C@H](C(C)C)NC(=O)[C@H](CC2CCCCC2)NC(=O)[C@H](CCN)NC1=O` [Compound 2132], 65.2 nM.
For `COCC[C@@H]1NC(=O)[C@H](CN)NC(=O)CSC[C@@H](C(=O)N[C@@H](C)C(N)=O)NC(=O)[C@H]([C@@H](C)O)NC(=O)[C@H](C(C)C)NC(=O)[C@H](CC2CCCCC2)NC(=O)[C@H](CCN)NC(=O)[C@@H](CC(C)C)NC(=O)[C@H](CCCN)NC(=O)[C@H](CCCNC(N)=O)NC(=O)[C@H](Cc2ccc(-c3ccccc3)cc2)NC(=O)[C@H](C(C)C)NC(=O)[C@H](Cc2c[nH]c3ccccc23)NC(=O)[C@H](CC(=O)O)NC1=O` [Compound 2133] ({CH2CO}-[Dap][hSer](Me)DWV[Bip][Cit][Orn][dL][Dab][Cha]VTCA-NH2; thioether N-14) the value was 24.6 nM; for `CC(C)C[C@H]1NC(=O)[C@H](CCCN)NC(=O)[C@H](CCCNC(N)=O)NC(=O)[C@H](Cc2ccc(-c3ccccc3)cc2)NC(=O)[C@H](C(C)C)NC(=O)[C@H](Cc2c[nH]c3ccccc23)NC(=O)[C@H](CC(=O)O)NC(=O)[C@H](CC(C(=O)O)C(=O)O)NC(=O)[C@H](CN)NC(=O)CSC[C@@H](C(=O)N[C@@H](C)C(N)=O)NC(=O)[C@H]([C@@H](C)O)NC(=O)[C@H](C(C)C)NC(=O)[C@H](CC2CCCCC2)NC(=O)[C@H](CCN)NC1=O` [Compound 2134] ({CH2CO}-[Dap][Gla]DWV[Bip][Cit][Orn][dL][Dab][Cha]VTCA-NH2; thioether N-14), 365 nM.
To `Cc1ccccc1-c1ccc(C[C@@H]2NC(=O)[C@H](CN)NC(=O)CSC[C@@H](C(=O)N[C@@H](C)C(N)=O)NC(=O)[C@H]([C@@H](C)O)NC(=O)[C@H](C(C)C)NC(=O)[C@H](CC3CCCCC3)NC(=O)[C@H](CCN)NC(=O)[C@@H](CC(C)C)NC(=O)[C@H](CCCN)NC(=O)[C@H](CCCNC(N)=O)NC(=O)[C@H](Cc3ccc(-c4ccccc4)cc3)NC(=O)[C@H](C(C)C)NC(=O)[C@H](Cc3c[nH]c4ccccc34)NC(=O)[C@H](CC(=O)O)NC2=O)cn1` [Compound 2135] ({CH2CO}-[Dap][Ala(6-(2-MePh)pyridin-3-yl)]DWV[Bip][Cit][Orn][dL][Dab][Cha]VTCA-NH2; thioether N-14) belongs 131 nM; to `CC(C)C[C@H]1NC(=O)[C@H](CCCN)NC(=O)[C@H](CCCNC(N)=O)NC(=O)[C@H](Cc2ccc(-c3ccccc3)cc2)NC(=O)[C@H](C(C)C)NC(=O)[C@H](Cc2c[nH]c3ccccc23)NC(=O)[C@H](CC(=O)O)NC(=O)[C@](C)(CCC(=O)O)NC(=O)[C@H](CN)NC(=O)CSC[C@@H](C(=O)N[C@@H](C)C(N)=O)NC(=O)[C@H]([C@@H](C)O)NC(=O)[C@H](C(C)C)NC(=O)[C@H](CC2CCCCC2)NC(=O)[C@H](CCN)NC1=O` [Compound 2136] ({CH2CO}-[Dap][αMeE]DWV[Bip][Cit][Orn][dL][Dab][Cha]VTCA-NH2; thioether N-14), 814 nM; to `CC(C)C[C@H]1NC(=O)[C@H](CCCN)NC(=O)[C@H](CCCNC(N)=O)NC(=O)[C@H](Cc2ccc(-c3ccccc3)cc2)NC(=O)[C@H](C(C)C)NC(=O)[C@H](Cc2c[nH]c3ccccc23)NC(=O)[C@H](CC(=O)O)NC(=O)[C@](C)(Cc2ccccc2)NC(=O)[C@H](CN)NC(=O)CSC[C@@H](C(=O)N[C@@H](C)C(N)=O)NC(=O)[C@H]([C@@H](C)O)NC(=O)[C@H](C(C)C)NC(=O)[C@H](CC2CCCCC2)NC(=O)[C@H](CCN)NC1=O` [Compound 2137] ({CH2CO}-[Dap][αMeF]DWV[Bip][Cit][Orn][dL][Dab][Cha]VTCA-NH2; thioether N-14), 11.4 nM.
Consider `Cc1ccc(C[C@@H]2NC(=O)[C@H](CC(=O)O)NC(=O)[C@H](Cc3ccc(OCC(=O)O)cc3)NC(=O)[C@H](CN)NC(=O)CSC[C@@H](C(=O)N[C@@H](C)C(N)=O)NC(=O)[C@H]([C@@H](C)O)NC(=O)[C@H](C(C)C)NC(=O)[C@H](CC3CCCCC3)NC(=O)[C@H](CCN)NC(=O)[C@@H](CC(C)C)NC(=O)[C@H](CCCN)NC(=O)[C@H](CCC(=O)O)NC(=O)[C@H](Cc3ccc(-c4ccccc4)cc3)NC(=O)[C@H](C(C)C)NC2=O)cc1` [Compound 2139], for which the IC50 was 71.6 nM.
To `COc1ccc(C[C@@H]2NC(=O)[C@H](CC(=O)O)NC(=O)[C@H](Cc3ccc(OCC(=O)O)cc3)NC(=O)[C@H](CN)NC(=O)CSC[C@@H](C(=O)N[C@@H](C)C(N)=O)NC(=O)[C@H]([C@@H](C)O)NC(=O)[C@H](C(C)C)NC(=O)[C@H](CC3CCCCC3)NC(=O)[C@H](CCN)NC(=O)[C@@H](CC(C)C)NC(=O)[C@H](CCCN)NC(=O)[C@H](CCC(=O)O)NC(=O)[C@H](Cc3ccc(-c4ccccc4)cc3)NC(=O)[C@H](C(C)C)NC2=O)cc1` [Compound 2140] ({CH2CO}-[Dap]Y(Carboxymethyl)DY(Me)V[Bip]E[Orn][dL][Dab][Cha]VTCA-NH2; thioether N-14) belongs 478 nM; to `CC(C)C[C@H]1NC(=O)[C@H](CCCN)NC(=O)[C@H](CCC(=O)O)NC(=O)[C@H](Cc2ccc(-c3ccccc3)cc2)NC(=O)[C@H](C(C)C)NC(=O)[C@H](Cc2ccc(O)cc2)NC(=O)[C@H](CC(=O)O)NC(=O)[C@H](Cc2ccc(OCC(=O)O)cc2)NC(=O)[C@H](CN)NC(=O)CSC[C@@H](C(=O)N[C@@H](C)C(N)=O)NC(=O)[C@H]([C@@H](C)O)NC(=O)[C@H](C(C)C)NC(=O)[C@H](CC2CCCCC2)NC(=O)[C@H](CCN)NC1=O` [Compound 2141] ({CH2CO}-[Dap]Y(Carboxymethyl)DYV[Bip]E[Orn][dL][Dab][Cha]VTCA-NH2; thioether N-14), 26.1 nM.
To `CC(C)C[C@H]1NC(=O)[C@H](CCCN)NC(=O)[C@H](CCC(=O)O)NC(=O)[C@H](Cc2ccc(-c3ccccc3)cc2)NC(=O)[C@H](C(C)C)NC(=O)[C@H](Cc2ccc3ccccc3c2)NC(=O)[C@H](CC(=O)O)NC(=O)[C@H](Cc2ccc(OCC(=O)O)cc2)NC(=O)[C@H](CN)NC(=O)CSC[C@@H](C(=O)N[C@@H](C)C(N)=O)NC(=O)[C@H]([C@@H](C)O)NC(=O)[C@H](C(C)C)NC(=O)[C@H](CC2CCCCC2)NC(=O)[C@H](CCN)NC1=O` [Compound 2142] ({CH2CO}-[Dap]Y(Carboxymethyl)D[2Nal]V[Bip]E[Orn][dL][Dab][Cha]VTCA-NH2; thioether N-14) belongs 543 nM; to `CC(C)C[C@H]1NC(=O)[C@H](CCCN)NC(=O)[C@H](CCC(=O)O)NC(=O)[C@H](Cc2ccc(-c3ccccc3)cc2)NC(=O)[C@H](C(C)C)NC(=O)[C@H](Cc2c[nH]c3ccc(C#N)cc23)NC(=O)[C@H](CC(=O)O)NC(=O)[C@H](Cc2ccc(OCC(=O)O)cc2)NC(=O)[C@H](CN)NC(=O)CSC[C@@H](C(=O)N[C@@H](C)C(N)=O)NC(=O)[C@H]([C@@H](C)O)NC(=O)[C@H](C(C)C)NC(=O)[C@H](CC2CCCCC2)NC(=O)[C@H](CCN)NC1=O` [Compound 2143], 139 nM; to `CC(C)C[C@H]1NC(=O)[C@H](CCCN)NC(=O)[C@H](CCC(=O)O)NC(=O)[C@H](Cc2ccc(-c3ccccc3)cc2)NC(=O)[C@H](C(C)C)NC(=O)[C@H](Cc2ccc3ccncc3c2)NC(=O)[C@H](CC(=O)O)NC(=O)[C@H](Cc2ccc(OCC(=O)O)cc2)NC(=O)[C@H](CN)NC(=O)CSC[C@@H](C(=O)N[C@@H](C)C(N)=O)NC(=O)[C@H]([C@@H](C)O)NC(=O)[C@H](C(C)C)NC(=O)[C@H](CC2CCCCC2)NC(=O)[C@H](CCN)NC1=O` [Compound 2144] ({CH2CO}-[Dap]Y(Carboxymethyl)D[X8]V[Bip]E[Orn][dL][Dab][Cha]VTCA-NH2; thioether N-14), 785 nM.
